In patent US6204067A, “Methods of identifying modulators of the estrogen receptor” (Board of Trustees Operating Michigan State University, priority 1999, dated 2001):
“Also recorded” adds a separate entry of the source.

Assays:
[1] = test system: recycling endosomes of MCF-7/ADR cells; experiment: In vitro acidification of recycling endosomes (FITC-transferrin); assay type: biochemical
Experimental: Acidification from the recycling endosomal fraction was monitored by first incubating cells with FITC-transferrin for 30 minutes before lysis and isolation of microsomes. Acidification was monitored by excitation of the FITC fluorophore at 450 and 488 nm and measuring λem =520 nm as described previously.
To specifically examine the acidification of the endosomes in vitro, in vitro acidification was assayed using FITC-transferrin which is constrained by the transferrin receptor to the endocytic pathway. MCF-7/ADR cells were incubated with FITC-transferrin before lysis and isolation of microsomes. Since this assay is not based on the redistribution of probes, it further serves as verification that AO quenching resulted from vesicular acidification. Upon addition of ATP, there was a decrease in the ratio of the FITC-emission (FIG. 1C). This signal was the consequence of acidification, since it was reversed upon the addition of nigericin.

[2] = test system: yeast vacuoles; experiment: Acidification of yeast vacuoles (acridine orange); assay type: biochemical, S. cerevisiae
Experimental: Vacuoles from S. cerevisiae were prepared from the protease deficient strain BJ2407 (Yeast Genetic Stock Center, University of California, Berkeley) by sequential floatation through 12% and 8% Ficoll 400 cushion as described previously [Roberts et al., Methods Enzymol, 194:644-661 (1991)] with the single modification that 1× protease inhibitor mix and 1 mM DTT was included in each step. […] Acidification was measured using AO as described above. For acidification in chloride-free solution, gluconate or glutamate was used in vesicle buffer instead of chloride.
ATP (1.5 mM) was added at 50 sec to initiate acidification and at 400 sec nigericin (1 μM) was added to dissipate pH gradients.

[3] = test system: yeast vATPase; experiment: Bafilomycin-inhibitable ATPase activity of yeast vATPase; assay type: biochemical, S. cerevisiae; details: 5 μM, chloride and gluconate buffer
Experimental: Vacuoles were diluted in KCl or K-gluconate vesicle buffer. […] Each of the four resulting samples was again split into two and either carrier or […] bafilomycin A1 was added. Next, 2 mM Tris-ATP was added to each sample and the vacuoles were incubated at 30° C. for 15 minutes. To measure the phosphate concentration from ATP hydrolysis, equal volume of Taussky-Shorr Reagent (1% w/v ainmoniummolybdate (w/v), 2.7% v/v sulfuric acid, and 5% w/v ferrous sulfate hexahydrate) was added and the samples were developed for 15 minutes. The A660 was measured (Spectronic Genesys 2) which is linearly related to phosphate concentration. The bafilomycin inlubtable ATPase activity was taken as the difference between the ATPase activity of each condition with or without 100 nM bafilomycin A1.
Replacing chloride with gluconate decreased the bafilomycin-inhibitable ATPase activity (FIG. 3B), further confirming that chloride provided the counter-ion transport to dissipate the Vm.

[4] = test system: E. coli inverted membrane vesicles; experiment: Acidification of E. coli inverted membrane vesicles (acridine orange); assay type: biochemical; details: 0.63 μM, 2 μM, 10 μM; similar dose dependence as mammalian and yeast vesicles
Experimental: InV were prepared from the DH5α strain as described [Simon and Blobel, Cell 69:677-684 (1992)]. Acidification was measured using AO as described above.
Unlike mammalian or yeast vesicles, InV utilize the F0 F1 -ATPase for acidification and are composed of different types of lipids, including an abundance of cardiolipin and a lack of sterols.

[5] = Experimental: The lumenal pH (pHL) of liposomes was assayed with pyranine, a fluorescent dye with a pKa~7.3 and a λex =405 nm in its acid form (-3 charge) and a λex =455 nm in its basic form (-4 charge). To prepare pyranine loaded liposomes, lipids (2 mg POPC, 1 mg cholesterol) supplied in chloroform suspension were dried in a round bottom flask under argon for 2 hours. The lipids were then resuspended in acidic or alkaline liposome buffer (300 mM KCl, 20 mM MES, 20 mM MOPS, 20 mM Tricine titrated with KOH to either pH 6.2 or pH 8.1) containing 0.5 mM pyranine. The suspension was incubated at room temperature overnight, then freeze-thawed 6×. Unilamellar liposomies were prepared by extrusion 3× through 2 stacked 100 nm Nucleopore (Corning/Costar Scientific, Acton, Mass.) polycarbonate filters in an Avestin (Vancouver, BC) extruder at 600 PSI.
The pyranine fluorescence was calibrated as a function of pH by diluting the liposomes with pH 6.2 into a weakly buffered solution of identical pH (300 mM KCl, 1 mM MES, 1 mM MOPS, 1 mM Tricine, pH 6.2), 1 μM nigericin to allow rapid equilibration with external pH and 5 mM DPX to quench external pyranine. The ratio of the fluorescence emission at λem =510 nm was monitored with dual excitation wavelengths of λex =405 nm and λex =455 nm. Sequential aliquots of 0.1 mM glycylglycine, pH 8.4 were added to increase pH (See FIG. 5). The fluorescence was measured after each addition and the pH was measured using a pH meter. […] The cahiration curve for the liposomes of lumenal pH 8.1 was generated identically except sequential aliquots of 0.1 mM K-MES pH 5.0 were added for titration and the curve was generated between pH 8.1 and pH 6.4.
To measure the rate of pH dissipation of liposomes with lumenal pH=6.2, the liposomes were diluted in weakly buffered solution of identical pH as described above, but with no nigericin. […] The external pH was shifted to pH 7.3 by addition of 5 mM glycylglycine pH 8.4 and the fluorescence ratio monitored. After 10 minutes, 1 μM nigericin was added to dissipate the remaining pH gradient. The pHL was calculated using the equation pH=x*log(λex =405 nm/[…])+c, were x and c are constants from the least square fit of the titration curve. To measure the rate of pH dissipation of liposomes with pHL =8.1, the identical procedure was followed except 5 mM K-MES pH 5.0 was added to shift the external pH to 6.9.
Liposomes were loaded with pyranine, a hydrophilic, non-permeable fluorescent pH indicator to assay proton permeability. […] Two steps were taken to ensure that only pHL was measured and to permit the discrimination between dissipation of pH gradient and the lysis or dye leakage from liposomes.

[6] = NMR in 10% Triton solution; cited from earlier work
[7] = Liposome chloride concentration (lucigenin)

## CC/C(=C(\c1ccccc1)c1ccc(OCCN(C)C)cc1)c1ccccc1 [tamoxifen]
[1]; 2.5 μM added after ATP
  effect on ATP-dependent acidification of recycling endosomes: partially reversed the acidification
[1]; concentration raised an additional 2.5 μM
  effect on ATP-dependent acidification of recycling endosomes: farher reduced
[2]; added at 250 sec, tamoxifen 2 μM, ammonium 1 mM
  effect of addition to pre-acidified vacuoles: rapid alkaline step followed by slower alkalinization
[2]; pre-equilibrated, 1.5 mM ATP, KCl buffer
  concentration giving complete inhibition of acidification: 8 µM
[2]; pre-equilibrated, tamoxifen 2 μM or 8 μM, ammonium chloride 1 mM
  inhibition of vacuole acidification: dose dependent inhibition of acidification
[3]
  effect on bafilomycin-inhibitable ATPase activity: increase of ATPase activity
[4]
  effect on ATP-dependent acidification of InV: inhibited acidification
[5]; pHL 6.2 = external pH, tamoxifen 2 μM, 8 μM, NH4Cl 5 mM
  effect of addition on pHL without pre-existing pH gradient: alkalinization of liposomes, followed by more rapid pH equilibration
[5]; pHL 8.1, 300 mM K-glutamate plus 90 mM KCl, external pH shifted to 6.9
  effect on pH equilibration with chloride included: more rapid pH equilibration
[5]; pHL 8.1, 300 mM K-glutamate, external pH shifted to 6.9
  effect on dissipation of pH in the absence of chloride: no effect on the dissipation of pH
[5]; pHL 8.1, external pH shifted to 6.9, tamoxifen 0.5-8 μM, NH4Cl 5 mM, FCCP 1 μM, valinomycin 1 μM
  rate of pH gradient dissipation, alkaline lumen: dissipated more quickly with increasing concentrations; also recorded: faster than saturating concentration of FCCP
[6]
  pKa: 6.9
[7]; 4 μM tamoxifen with 1 μM valinomycin, 50 mM KCl
  rate of chloride influx in the presence of valinomycin: increased the rate of chloride influx
[7]; after addition of 50 mM KCl, tamoxifen 2, 4, 8 μM, valinomycin 1 μM
  rate of chloride influx into liposomes: dose dependent increase in the rate of chloride influx
